Assay results taken from paper PMC12040169 (PLOS Biology, 2025).

Test: in vitro
Conditions: human, hela cells, % viability

Structure (SMILES)	viability at 28.5 h, 10 µM [%]
CC(C)c1ccc(/C=C/C(=O)NCc2ccc3occc3c2)cc1 [CBK149620]	93.3
Cc1cnc(CNC(=O)/C=C/c2ccc(C(C)C)cc2)cn1 [CBK149625]	99.4
CC(C)c1ccc(/C=C/C(=O)NCCc2c[nH]cn2)cc1 [CBK149629]	101
CC(C)c1ccc(/C=C/C(=O)NCc2ccccc2)cc1 [CBK149635]	112
CCN(CC)C(=O)/C=C/c1ccc(C(C)C)cc1 [CBK149636]	93.1
COc1ccc2[nH]cc(CCNC(=O)/C=C/c3ccc(C(C)C)cc3)c2c1 [CBK149639]	91.7
CC(C)c1ccc(/C=C/C(=O)NC2CC2)cc1 [CBK149640]	105
CCOC(=O)CCNC(=O)/C=C/c1ccc(C(C)C)cc1 [CBK149643]	102
O=c1[nH]c2ccccc2n1C1CCN(S(=O)(=O)c2cccs2)CC1 [CBK149689]	98.4
O=c1[nH]c2ccccc2n1C1CCN(S(=O)(=O)c2ccc(OC(F)(F)F)cc2)CC1 [CBK149690]	93.8
Cc1ccc(S(=O)(=O)N2CCC(n3c(=O)[nH]c4ccccc43)CC2)cc1Cl [CBK149691]	90.8
O=c1[nH]c2ccccc2n1C1CCN(S(=O)(=O)c2cc(Cl)cc(Cl)c2O)CC1 [CBK149694]	81.4
O=S(=O)(Nc1nccnc1Cl)c1ccccc1Cl [CBK149698]	84.3
O=C(C1CCCCC1)N1CCC(n2c(=O)[nH]c3ccccc32)CC1 [CBK149703]	92.8
O=C(c1ccccc1C(F)(F)F)N1CCC(n2c(=O)[nH]c3ccccc32)CC1 [CBK149706]	97
O=C(C1CCC1)N1CCC(n2c(=O)[nH]c3ccccc32)CC1 [CBK149709]	108
CN(C)Cc1ccc2nc(C(F)(F)F)cc(SCCC(=O)O)c2c1 [CBK149715T]	91.4
CC(=O)Nc1ccc(OCCO)cc1 [CBK149724]	86.6
CN(C)c1ccc2cccc(O)c2n1 [CBK149729]	93.9
COc1ccc(CC(=O)N2CCC(C3OCc4cc(-c5ccc(C(=O)N(C)C)cc5)ccc4O3)CC2)cc1 (stereo not drawn) [CBK149759]	88.2
CN(C)C(=O)c1ccc(-c2ccc3c(c2)COC(C2CCN(C(=O)CC4CCCCC4)CC2)O3)cc1 (stereo not drawn) [CBK149763]	114
COc1cccc2cc(C(=O)NCCCN3CCN(C)CC3)oc12 [CBK149788]	101
COc1cccc2cc(C(=O)NCc3c(F)cccc3F)oc12 [CBK149794]	65

Structure (SMILES)	viability at 28.5 h, 10 µM [%]
COc1cccc2cc(C(=O)NCc3ccc(Cl)c(Cl)c3)oc12 [CBK149795]	85.2
COc1cccc2cc(C(=O)NCc3ccc4c(c3)OCO4)oc12 [CBK149797]	90.9
COc1cccc2cc(C(=O)NCCc3ccc(O)cc3)oc12 [CBK149802]	93.9
COc1cccc2cc(C(=O)NCCN3CCOCC3)oc12 [CBK149807]	101
COc1ccc(C2(C(=O)NCCN3CCCC3)CC2)cc1 [CBK149824]	95.6
COc1ccc(C2(C(=O)NCc3c(F)cccc3F)CC2)cc1 [CBK149826]	108
COc1ccc(C2(C(=O)NCc3ccc4c(c3)OCO4)CC2)cc1 [CBK149829]	103
COc1ccc(C2(C(=O)NCc3cnc(C)cn3)CC2)cc1 [CBK149830]	98.5
COc1ccc(C2(C(=O)NCCc3c[nH]cn3)CC2)cc1 [CBK149834]	97.8
COc1ccc(C2(C(=O)N3CCN(C)CC3)CC2)cc1 [CBK149837]	86.3
COc1ccc(C2(C(=O)N[C@H]3CC[C@H](O)CC3)CC2)cc1 [CBK149840]	111
O=C(Nc1cccc(C(F)(F)F)c1)N1CCC(n2c(=O)[nH]c3ccccc32)CC1 [CBK149845]	84.6
O=C(Nc1cccc2ccccc12)N1CCC(n2c(=O)[nH]c3ccccc32)CC1 [CBK149858]	85
O=C(Oc1ccccc1)N1CCC(n2c(=O)[nH]c3ccccc32)CC1 [CBK149865]	89
O=C(Nc1sc2c(c1C(=O)O)CCC2)c1ccco1 [CBK152436]	101
O=C(Nc1ccsc1C(=O)O)c1ccccc1Cl [CBK152440]	98.4
CNC(=O)C1CCN(Cc2ccc(-c3nnn(CC(=O)NCc4ccc(C)cc4)n3)cc2)CC1 [CBK153195T]	96.1
O=C(NCc1cccnc1)c1ccc(N2CCN(C(=O)c3ccccc3C(F)(F)F)CC2)nn1 [CBK153215]	72.3
O=C(NCCN1CCCC1)c1ccc(N2CCN(C(=O)c3ccccc3C(F)(F)F)CC2)nn1 [CBK153217]	105
O=C(NCc1cccs1)c1ccc(N2CCN(C(=O)c3ccccc3C(F)(F)F)CC2)nn1 [CBK153218]	87.6
CC(C)CCNC(=O)c1ccc(N2CCN(C(=O)c3ccccc3C(F)(F)F)CC2)nn1 [CBK153222]	114
O=C(c1cscn1)N1CCC2(CCCNC2)C1 (stereo not drawn) [CBK153230C]	97
